Results: US20240158446A1, “CYCLIC COMPOUND HAVING SELECTIVE INHIBITORY ACTION ON KRAS OVER HRAS AND NRAS” (CHUGAI SEIYAKU KABUSHIKI KAISHA, priority 2021, published 2024)
*1 amine or outer side, *2 acyl side, *3 side chain or, on linkers, in order; H or OH if unused. Where a SMILES comes first, the peptide text is derived from it. Bridges are numbered along the chain shown (N, C = ends). [ ]: non-standard residue; d: D form. The star is where a group is joined. hPhe(3,5-F2-4-CF3) = N[C@@H](CCc1cc(F)c(C(F)(F)F)c(F)c1)C(=O)O; NPrPhe(4-CF3) = CCCN[C@@H](Cc1ccc(C(F)(F)F)cc1)C(=O)O; NMeGly(cPent) = CN[C@H](C(=O)O)C1CCCC1; X8 = C[C@@](N[*:1])(C(=O)[*:2])C1CC1; X11 = CCC[C@](C)(N[*:1])C(=O)[*:2]; Nva(3-Et) = CCC(CC)[C@H](N)C(=O)O; αMeF = C[C@](N)(Cc1ccccc1)C(=O)O; NMeD = CN[C@@H](CC(=O)O)C(=O)O; NMeL = CN[C@@H](CC(C)C)C(=O)O; αMeL = CC(C)C[C@](C)(N)C(=O)O; αMeV = CC(C)[C@](C)(N)C(=O)O; αMeS = C[C@](N)(CO)C(=O)O; Morpholide = C1CN(*)CCO1; Ac5c = NC1(C(=O)O)CCCC1; Aze = O=C(O)[C@@H]1CCN1; Sar = CNCC(=O)O; Allyl = C=CC*

What was measured:
[1] = target: GDP-bound NRAS wild-type protein (Homo sapiens, UniProt P01111); assay: Binding to NRAS by surface plasmon resonance (SPR), Single Cycle Kinetics; details: SPR, GDP-bound NRAS wild-type protein vs GDP-bound KRAS wild-type protein
Sequence of GDP-bound NRAS wild-type protein (P01111 whole entry): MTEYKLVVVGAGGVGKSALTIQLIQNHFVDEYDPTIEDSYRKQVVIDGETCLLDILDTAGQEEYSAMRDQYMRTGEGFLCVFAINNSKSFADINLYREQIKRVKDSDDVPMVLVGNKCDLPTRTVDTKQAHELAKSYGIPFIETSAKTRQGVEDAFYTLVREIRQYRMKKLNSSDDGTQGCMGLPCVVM

[2] = target: GDP-bound HRAS wild-type protein (Homo sapiens, UniProt P01112); assay: Binding to HRAS by surface plasmon resonance (SPR), Single Cycle Kinetics; details: SPR, GDP-bound HRAS wild-type protein vs GDP-bound KRAS wild-type protein
Sequence of GDP-bound HRAS wild-type protein (P01112 whole entry): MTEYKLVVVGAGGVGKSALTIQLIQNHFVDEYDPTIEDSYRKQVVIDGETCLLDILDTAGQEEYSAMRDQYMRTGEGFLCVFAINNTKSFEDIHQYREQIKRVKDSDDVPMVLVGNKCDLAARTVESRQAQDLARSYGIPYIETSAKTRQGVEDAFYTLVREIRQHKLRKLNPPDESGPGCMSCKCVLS

[3] = system: human lung cancer strain NCI-H441;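 note: cell proliferation inhibition after four days measured by CellTiter-Glo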

SMILES	NRAS/KRAS (ratio of KD value with respect to NRAS to KD value with respect to KRAS) [1]	HRAS/KRAS (ratio of KD value with respect to HRAS to KD value with respect to KRAS) [2]	IC50 [3] [nM]	NRAS/KRAS (ratio of KD value for NRAS to KD value for KRAS) [1]	HRAS/KRAS (ratio of KD value for HRAS to KD value for KRAS) [2]
C=CCOC[C@]1(C)NC(=O)[C@@H]2CCCN2C(=O)[C@H](CCc2cc(F)c(C(F)(F)F)c(F)c2)NC(=O)CN(C)C(=O)[C@H](Cc2ccc(C(F)(F)F)cc2)N(CCC)C(=O)CN(C)C(=O)CN(C)C(=O)[C@H]([C@@H](C)CC)NC(=O)[C@H](CC(C)C)N(C)C(=O)C[C@@H](C(=O)N2CCOCC2)N(C)C(=O)[C@H](C2CCCC2)N(C)C1=O [PP0763] ([NMeL]I[Sar][Sar][NPrPhe(4-CF3)][Sar][hPhe(3,5-F2-4-CF3)]P[αMeS](Allyl)[NMeGly(cPent)][NMeD]-Morpholide; lactam N-11)	B (a compound having 3 or more and less than 10 is denoted as B)	B (a compound having 3 or more and less than 10 is denoted as B)	83		
CCCN1C(=O)CN(C)C(=O)[C@@H]2CCN2C(=O)[C@H]([C@@H](C)CC)NC(=O)[C@H](CC(C)C)N(C)C(=O)C[C@@H](C(=O)N2CCOCC2)N(C)C(=O)[C@H](C2CCCC2)N(C)C(=O)[C@](C)(C2CC2)NC(=O)[C@@H]2CCCN2C(=O)[C@H](CCc2cc(F)c(C(F)(F)F)c(F)c2)NC(=O)CN(C)C(=O)[C@@H]1Cc1ccc(C(F)(F)F)cc1 [PP0772] ([NMeL]I[Aze][Sar][NPrPhe(4-CF3)][Sar][hPhe(3,5-F2-4-CF3)]P[X8][NMeGly(cPent)][NMeD]-Morpholide; lactam N-11)	B (a compound having 3 or more and less than 10 is denoted as B)	B (a compound having 3 or more and less than 10 is denoted as B)	434		
CCCN1C(=O)CN(C)C(=O)[C@@H]2CCN2C(=O)[C@H]([C@@H](C)CC)NC(=O)[C@H](CC(C)C)N(C)C(=O)C[C@@H](C(=O)N2CCOCC2)N(C)C(=O)[C@H](C2CCCC2)N(C)C(=O)[C@](C)(C(C)C)NC(=O)[C@@H]2CCCN2C(=O)[C@H](CCc2cc(F)c(C(F)(F)F)c(F)c2)NC(=O)CN(C)C(=O)[C@@H]1Cc1ccc(C(F)(F)F)cc1 [PP0773] ([NMeL]I[Aze][Sar][NPrPhe(4-CF3)][Sar][hPhe(3,5-F2-4-CF3)]P[αMeV][NMeGly(cPent)][NMeD]-Morpholide; lactam N-11)	B (a compound having 3 or more and less than 10 is denoted as B)	B (a compound having 3 or more and less than 10 is denoted as B)	170		
CCCN1C(=O)CN(C)C(=O)[C@@H]2CCN2C(=O)[C@H]([C@@H](C)CC)NC(=O)[C@H](CC(C)C)N(C)C(=O)C[C@@H](C(=O)N2CCOCC2)N(C)C(=O)[C@H](C2CCCC2)N(C)C(=O)[C@](C)(CCC)NC(=O)[C@@H]2CCCN2C(=O)[C@H](CCc2cc(F)c(C(F)(F)F)c(F)c2)NC(=O)CN(C)C(=O)[C@@H]1Cc1ccc(C(F)(F)F)cc1 [PP0775] ([NMeL]I[Aze][Sar][NPrPhe(4-CF3)][Sar][hPhe(3,5-F2-4-CF3)]P[X11][NMeGly(cPent)][NMeD]-Morpholide; lactam N-11)	B (a compound having 3 or more and less than 10 is denoted as B)	B (a compound having 3 or more and less than 10 is denoted as B)	417		
CCCN1C(=O)CN(C)C(=O)[C@@H]2CCN2C(=O)[C@H]([C@@H](C)CC)NC(=O)[C@H](CC(C)C)N(C)C(=O)C[C@@H](C(=O)N2CCOCC2)N(C)C(=O)[C@H](C2CCCC2)N(C)C(=O)[C@](C)(CC(C)C)NC(=O)[C@@H]2CCCN2C(=O)[C@H](CCc2cc(F)c(C(F)(F)F)c(F)c2)NC(=O)CN(C)C(=O)[C@@H]1Cc1ccc(C(F)(F)F)cc1 [PP0776] ([NMeL]I[Aze][Sar][NPrPhe(4-CF3)][Sar][hPhe(3,5-F2-4-CF3)]P[αMeL][NMeGly(cPent)][NMeD]-Morpholide; lactam N-11)	B (a compound having 3 or more and less than 10 is denoted as B)	B (a compound having 3 or more and less than 10 is denoted as B)	591		
CCCN1C(=O)CN(C)C(=O)[C@@H]2CCN2C(=O)[C@H]([C@@H](C)CC)NC(=O)[C@H](CC(C)C)N(C)C(=O)C[C@@H](C(=O)N2CCOCC2)N(C)C(=O)[C@H](C2CCCC2)N(C)C(=O)[C@](C)(Cc2ccccc2)NC(=O)[C@@H]2CCCN2C(=O)[C@H](CCc2cc(F)c(C(F)(F)F)c(F)c2)NC(=O)CN(C)C(=O)[C@@H]1Cc1ccc(C(F)(F)F)cc1 [PP0778] ([NMeL]I[Aze][Sar][NPrPhe(4-CF3)][Sar][hPhe(3,5-F2-4-CF3)]P[αMeF][NMeGly(cPent)][NMeD]-Morpholide; lactam N-11)	B (a compound having 3 or more and less than 10 is denoted as B)	B (a compound having 3 or more and less than 10 is denoted as B)	546		
CCCN1C(=O)CN(C)C(=O)[C@@H]2CCN2C(=O)[C@H]([C@@H](C)CC)NC(=O)[C@H](CC(C)C)N(C)C(=O)C[C@@H](C(=O)N2CCOCC2)N(C)C(=O)[C@H](C2CCCC2)N(C)C(=O)[C@](C)(COC)NC(=O)[C@@H]2CCCN2C(=O)[C@H](CCc2cc(F)c(C(F)(F)F)c(F)c2)NC(=O)CN(C)C(=O)[C@@H]1Cc1ccc(C(F)(F)F)cc1 [PP0779] ([NMeL]I[Aze][Sar][NPrPhe(4-CF3)][Sar][hPhe(3,5-F2-4-CF3)]P[αMeS](Me)[NMeGly(cPent)][NMeD]-Morpholide; lactam N-11)	B (a compound having 3 or more and less than 10 is denoted as B)	B (a compound having 3 or more and less than 10 is denoted as B)	364		
C=CCOC[C@]1(C)NC(=O)[C@@H]2CCCN2C(=O)[C@H](CCc2cc(F)c(C(F)(F)F)c(F)c2)NC(=O)CN(C)C(=O)[C@H](Cc2ccc(C(F)(F)F)cc2)N(CCC)C(=O)CN(C)C(=O)[C@@H]2CCN2C(=O)[C@H]([C@@H](C)CC)NC(=O)[C@H](CC(C)C)N(C)C(=O)C[C@@H](C(=O)N2CCOCC2)N(C)C(=O)[C@H](C2CCCC2)N(C)C1=O [PP0780] ([NMeL]I[Aze][Sar][NPrPhe(4-CF3)][Sar][hPhe(3,5-F2-4-CF3)]P[αMeS](Allyl)[NMeGly(cPent)][NMeD]-Morpholide; lactam N-11)	B (a compound having 3 or more and less than 10 is denoted as B)	B (a compound having 3 or more and less than 10 is denoted as B)	527		
CCCN1C(=O)CN(C)C(=O)[C@@H]2CCN2C(=O)[C@H](C(CC)CC)NC(=O)[C@H](CC(C)C)N(C)C(=O)C[C@@H](C(=O)N2CCOCC2)N(C)C(=O)[C@H](C2CCCC2)N(C)C(=O)C2(CCCC2)NC(=O)[C@@H]2CCCN2C(=O)[C@H](CCc2cc(F)c(C(F)(F)F)c(F)c2)NC(=O)CN(C)C(=O)[C@@H]1Cc1ccc(C(F)(F)F)cc1 [PP0785] ([NMeL][Nva(3-Et)][Aze][Sar][NPrPhe(4-CF3)][Sar][hPhe(3,5-F2-4-CF3)]P[Ac5c][NMeGly(cPent)][NMeD]-Morpholide; lactam N-11)	B (a compound having 3 or more and less than 10 is denoted as B)	B (a compound having 3 or more and less than 10 is denoted as B)	324		
CC[C@H](C)[C@@H]1NC(=O)[C@H](CC(C)C)N(C)C(=O)C[C@@H](C(=O)N2CCOCC2)N(C)C(=O)[C@H](C2CCCC2)N(C)C(=O)C2(CCC2)NC(=O)[C@@H]2[C@H]3C[C@H]3CN2C(=O)[C@H](CCc2cc(F)c(C(F)(F)F)c(F)c2)NC(=O)CN(C)C(=O)[C@H](Cc2ccc(C(F)(F)F)cc2)N2CCCCC[C@@H](C2=O)N(C)C(=O)CN(C)C1=O [PP0819]			75.7	A (a compound having 10 or more and less than 20 is denoted as A)	B (a compound having 3 or more and less than 10 is denoted as B)
CCO[C@@H]1C[C@H]2C(=O)NC3(CCC3)C(=O)N(C)[C@@H](C3CCCC3)C(=O)N(C)[C@H](C(=O)N3CCOCC3)CC(=O)N(C)[C@@H](COCC(F)(F)F)C(=O)N[C@@H]([C@@H](C)CC)C(=O)N(C)CC(=O)N(C)[C@H]3CCCCCN(C3=O)[C@@H](Cc3ccc(C(F)(F)F)cc3)C(=O)N(C)CC(=O)N[C@@H](CCc3cc(F)c(C(F)(F)F)c(F)c3)C(=O)N2C1 [PP0853]			24.3	B (a compound having 3 or more and less than 10 is denoted as B)	B (a compound having 3 or more and less than 10 is denoted as B)
CCO[C@@H]1C[C@H]2C(=O)NC3(CCC3)C(=O)N(C)[C@@H](C3CCCC3)C(=O)N(C)[C@H](C(=O)N3CCOCC3)CC(=O)N(C)[C@@H](Cc3cscn3)C(=O)N[C@@H]([C@@H](C)CC)C(=O)N(C)CC(=O)N(C)[C@H]3CCCCCN(C3=O)[C@@H](Cc3ccc(C(F)(F)F)cc3)C(=O)N(C)CC(=O)N[C@@H](CCc3cc(F)c(C(F)(F)F)c(F)c3)C(=O)N2C1 [PP0855]			114	B (a compound having 3 or more and less than 10 is denoted as B)	B (a compound having 3 or more and less than 10 is denoted as B)
